In one assay the target is T1, αA domain from CD11a (Homo sapiens, UniProt P20701).
T1 sequence (P20701 156-327 limits assumed): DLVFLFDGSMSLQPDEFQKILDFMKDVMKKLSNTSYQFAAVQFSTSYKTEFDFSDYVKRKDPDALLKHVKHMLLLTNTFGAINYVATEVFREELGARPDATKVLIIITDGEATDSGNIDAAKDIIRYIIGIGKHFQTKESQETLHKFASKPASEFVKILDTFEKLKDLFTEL
To be noted: binding at the strand-F/α7 interface; reference 84; cited from earlier work.

For another assay, the target named is physiologic ligand. As to the kind of experiment: ligand binding to membrane-bound integrin.

Turning to `CC[C@H](C)C(=O)O[C@H]1C[C@@H](C)C=C2C=C[C@H](C)[C@H](CC[C@@H]3C[C@@H](O)CC(=O)O3)[C@H]21` [lovastatin], the “effect of binding on integrin activation state” value at αA domain from CD11a was “locks this integrin in the inactive state”.

As for “αVβ3 integrin mutant D^126D^127/A^126A^127, membrane-bound (from UniProt P06756 31-1048; P05106 27-788) (receptor)”, the fold increase of binding with physiologic ligand was 1.5 to 2 fold.

Source of the values: patent US20060142548A1, “Methods of identifying and designing cell surface receptor inhibitors” (priority 2003, published 2006).
